The molecules below were run on HEK293-STF3A cells (assay: STF3A assay (STF luciferase reporter in Wnt3A-expressing HEK293 cells)). Conditions: Homo sapiens, 24 h, 1 day of treatment.
Type: cell-based
Text: HEK293-STF cell line was modified from Human embryonic kidney cell line HEK293 transfected with the STF reporter. HEK293-STF3A cell line was further modified from HEK293-STF cell line to express Wnt3A. This cell line was used to identify compounds that regulate either early or late signaling components of the Wnt pathway. These two cell lines were obtained from David Virshup's laboratory, Duke-NUS. L-Wnt3A (ATCC, #CRL-2647) cell line was used for providing Wnt3A conditioned media. The three cell lines were grown in DMEM with 10% FBS incubated in 37° C. with 5% CO2.
2×10^4 HEK293-STF3A cells in 75 μl culture media were seeded in each well of white 96 well plates (Greiner #655098) and incubated overnight at 37° C. 25 μl serially diluted compound was added to the cells to give final concentration of 50 μM to 1.5 nM. After 1 day of treatment, 100 μl of Steady-Glo Luciferase Assay reagent (#E2520, Promega) was added to each well and incubated for 10 minutes at room temperature. Luminescence was measured using Tecan Safire2 plate reader.

SMILES	IC50
O=C(CN1CCCC2=C1C(=O)N(C1CC1)C2=O)Nc1ccc(-c2cncc(F)c2)cn1 [Compound 106, 2-(6-cyclopropyl-5,7-dioxo-2,3,4,5,6,7-hexahydro-1H-pyrrolo[3,4-b]pyridin-1-yl)-N-(5′-fluoro-[3,3′-bipyridin]-6-yl)acetamide]	< 100 nM
CN1C(=O)C2=C(C1=O)N(CC(=O)Nc1ccc(-c3ccncc3)cn1)CCC2 [Compound 88, N-([3,4′-bipyridin]-6-yl)-2-(6-methyl-5,7-dioxo-2,3,4,5,6,7-hexahydro-1H-pyrrolo[3,4-b]pyridin-1-yl)acetamide]	< 1000 nM
CC(C(=O)Nc1ccc(-c2cccnc2)nc1)N1CCCC2=C1C(=O)N(C)C2=O (stereo not drawn) [Compound 20, N-([2,3′-bipyridin]-5-yl)-2-(6-methyl-5,7-dioxo-2,3,4,5,6,7-hexahydro-1H-pyrrolo[3,4-b]pyridin-1-yl)propanamide]	< 100 nM
Cc1cncc(-c2ccc(NC(=O)CN3CCCC4=C3C(=O)N(C3CC3)C4=O)nn2)c1 [Compound 53, 2-(6-cyclopropyl-5,7-dioxo-2,3,4,5,6,7-hexahydro-1H-pyrrolo[3,4-b]pyridin-1-yl)-N-(6-(5-methylpyridin-3-yl)pyridazin-3-yl)acetamide]	< 100 nM
O=C(CN1CCCC2=C1C(=O)N(C1CC1)C2=O)Nc1ccc(-c2cccnc2F)nc1 [Compound 135, 2-(6-cyclopropyl-5,7-dioxo-2,3,4,5,6,7-hexahydro-1H-pyrrolo[3,4-b]pyridin-1-yl)-N-(2′-fluoro-2,3′-bipyridin-5-yl)acetamide]	< 100 nM
Cc1nc(NC(=O)CN2CCCC3=C2C(=O)N(C)C3=O)ccc1-c1cccnc1 [Compound 112]	< 10000 nM
CC(C(=O)Nc1cnc(-c2ccccc2)cn1)N1CCCC2=C1C(=O)N(C)C2=O (stereo not drawn) [Compound 19, 2-(6-methyl-5,7-dioxo-2,3,4,5,6,7-hexahydro-1H-pyrrolo[3,4-b]pyridin-1-yl)-N-(5-phenylpyrazin-2-yl)propanamide]	< 100 nM
Cc1nc(-c2cccnc2)ccc1NC(=O)CN1CCCC2=C1C(=O)N(C1CC1)C2=O [Compound 123, 2-(6-cyclopropyl-5,7-dioxo-2,3,4,5,6,7-hexahydro-1H-pyrrolo[3,4-b]pyridin-1-yl)-N-(6-methyl-2,3′-bipyridin-5-yl)acetamide]	> 10000 nM
CN1C(=O)C2=C(C1=O)N(CC(=O)Nc1ccc(-c3ccc(F)cc3)cn1)CCC2 [Compound 7, N-(5-(4-fluorophenyl)pyridin-2-yl)-2-(6-methyl-5,7-dioxo-2,3,4,5,6,7-hexahydro-1H-pyrrolo[3,4-b]pyridin-1-yl)acetamide]	< 100 nM
O=C(CN1CCCC2=C1C(=O)N(C1CC1)C2=O)Nc1ccc(-c2ccc(C(F)(F)F)cc2)nn1 [Compound 51, 2-(6-cyclopropyl-5,7-dioxo-2,3,4,5,6,7-hexahydro-1H-pyrrolo[3,4-b]pyridin-1-yl)-N-(6-(4-(trifluoromethyl)phenyl)pyridazin-3-yl)acetamide]	< 1000 nM
CN1C(=O)C2=C(C1=O)N(CC(=O)Nc1cnc(-c3cncc(F)c3)cn1)CCC2 [Compound 141, N-(5-(5-fluoropyridin-3-yl)pyrazin-2-yl)-2-(6-methyl-5,7-dioxo-2,3,4,5,6,7-hexahydro-1H-pyrrolo[3,4-b]pyridin-1-yl)acetamide]	< 100 nM
Cc1ccncc1-c1ccc(NC(=O)CN2CCCC3=C2C(=O)N(C2CC2)C3=O)cn1 [Compound 138, 2-(6-cyclopropyl-5,7-dioxo-2,3,4,5,6,7-hexahydro-1H-pyrrolo[3,4-b]pyridin-1-yl)-N-(4′-methyl-2,3′-bipyridin-5-yl)acetamide]	< 1000 nM
O=C(CN1CCCC2=C1C(=O)N(C1CC1)C2=O)Nc1cnc(-c2cccnc2)cn1 [Compound 26, 2-(6-cyclopropyl-5,7-dioxo-2,3,4,5,6,7-hexahydro-1H-pyrrolo[3,4-b]pyridin-1-yl)-N-(5-(pyridin-3-yl)pyrazin-2-yl)acetamide]	< 100 nM
COc1cc(NC(=O)CN2CCCC3=C2C(=O)N(C)C3=O)ccc1-c1ccccc1 [Compound 99, N-(2-methoxy-[1,1′-biphenyl]-4-yl)-2-(6-methyl-5,7-dioxo-2,3,4,5,6,7-hexahydro-1H-pyrrolo[3,4-b]pyridin-1-yl)acetamide]	< 10000 nM
COc1ccc(-c2ccc(NC(=O)CN3CCCC4=C3C(=O)N(C)C4=O)nn2)cc1 [Compound 31, N-(6-(4-methoxyphenyl)pyridazin-3-yl)-2-(6-methyl-5,7-dioxo-2,3,4,5,6,7-hexahydro-1H-pyrrolo[3,4-b]pyridin-1-yl)acetamide]	< 100 nM
COc1cncc(-c2ccc(NC(=O)CN3CCCC4=C3C(=O)N(C3CC3)C4=O)nn2)c1 [Compound 153, 2-(6-cyclopropyl-5,7-dioxo-2,3,4,5,6,7-hexahydro-1H-pyrrolo[3,4-b]pyridin-1-yl)-N-(6-(5-methoxypyridin-3-yl)pyridazin-3-yl)acetamide]	< 100 nM
O=C(CN1CCCC2=C1C(=O)N(C1CC1)C2=O)Nc1ccc(-c2cccc(OC(F)(F)F)c2)nn1 [Compound 56, 2-(6-cyclopropyl-5,7-dioxo-2,3,4,5,6,7-hexahydro-1H-pyrrolo[3,4-b]pyridin-1-yl)-N-(6-(3-(trifluoromethoxy)phenyl)pyridazin-3-yl)acetamide]	< 1000 nM
COc1cc(-c2ccccc2)ccc1NC(=O)CN1CCCC2=C1C(=O)N(C)C2=O [Compound 81, N-(3-methoxy-[1,1′-biphenyl]-4-yl)-2-(6-methyl-5,7-dioxo-2,3,4,5,6,7-hexahydro-1H-pyrrolo[3,4-b]pyridin-1-yl)acetamide]	> 10000 nM
Cc1nc(-c2ccc(NC(=O)CN3CCCC4=C3C(=O)N(C3CC3)C4=O)nc2)cs1 [Compound 15, 2-(6-cyclopropyl-5,7-dioxo-2,3,4,5,6,7-hexahydro-1H-pyrrolo[3,4-b]pyridin-1-yl)-N-(5-(2-methylthiazol-4-yl)pyridin-2-yl)acetamide]	< 100 nM
CC(C(=O)Nc1cc(-c2cccc(Cl)c2)no1)N1CCCC2=C1C(=O)N(C)C2=O (stereo not drawn) [Compound 18, N-(3-(3-chlorophenyl)isoxazol-5-yl)-2-(6-methyl-5,7-dioxo-2,3,4,5,6,7-hexahydro-1H-pyrrolo[3,4-b]pyridin-1-yl)propanamide]	< 5000 nM
O=C(CN1CCCC2=C1C(=O)N(C1CCC1)C2=O)Nc1ccc(-c2ccccc2)nn1 [Compound 38, 2-(6-cyclobutyl-5,7-dioxo-2,3,4,5,6,7-hexahydro-1H-pyrrolo[3,4-b]pyridin-1-yl)-N-(6-phenylpyridazin-3-yl)acetamide]	< 100 nM
Cc1ccc(-c2ccc(NC(=O)CN3CCCC4=C3C(=O)N(C)C4=O)nn2)cc1 [Compound 30, 2-(6-methyl-5,7-dioxo-2,3,4,5,6,7-hexahydro-1H-pyrrolo[3,4-b]pyridin-1-yl)-N-(6-(p-tolyl)pyridazin-3-yl)acetamide]	< 100 nM
O=C(CN1CCCC2=C1C(=O)N(C1CC1)C2=O)Nc1ccc(-c2cccnc2)nc1F [Compound 137]	< 100 nM
O=C(CN1CCCC2=C1C(=O)N(C1CC1)C2=O)Nc1ccc(-c2cccnc2)nc1 [Compound 59, N-(2,3′-bipyridin-5-yl)-2-(6-cyclopropyl-5,7-dioxo-2,3,4,5,6,7-hexahydro-1H-pyrrolo[3,4-b]pyridin-1-yl)acetamide]	< 100 nM
